Counter-ions that a name gives are not always drawn. Like-named read-outs stand apart in the source and are kept apart here.
Experiments:
rats = experiment: Test B: narcotic antagonist activity (modified rat tail flick test, morphine antagonism); format: in vivo, male albino Wistar rats; design: key to AD50 (Test B): inactive at dose stated: IA is intended to mean "inactive"; conditions: for ED50: Rattus norvegicus; for AD50 (Test B): inactive at dose stated: at 10 mg/kg, interperitoneally
Procedure: (B) Narcotic antagonist activity in rats (modified rat tail flick test).
The narcotic antagonist effects of test compounds were determined by a modification of the rat tail flick procedure of Harris and Pierson (J. Pharmacol. Exp. Ther. 143:141[1964]).
(§1) Male albino Wistar rats (100-120 g) were used for this study. A rat's tail is so placed so as to cover a photocell. Heat is applied by a lamp in a reflector with a timer being connected to the lamp and photocell so that the timer goes on when the light is turned on and is turned off when the photocell is uncovered. A rheostat, incorporated into a heating lamp is used to adjust the intensity of the light falling on the tail of the rat such that the rat's control reaction time is from two to four seconds. Animals with a control reaction time outside this range are rejected. The rheostat adjustment is made only if a significant proportion (more than 2 out of every 10 rats) of the reaction times are outside the range of two to four seconds. Groups of five rats were used each time, and two control times were determined at 60 and 30 minutes prior to subcutaneous injection of the drug.
(§2) Thirty minutes after the last control run the test drug was given interperitoneally. This was followed ten minutes later by an ED80 dose of morphine subcutaneously. The animals were retested at 20 minutes after the morphine injection. Control animals were given vehicle and morphine only. The data were calculated as follows: [formula]
(§3) The data were plotted on log-probit paper and AD50 values, i.e., the dose required to inhibit the morphine effect by 50% within 95% condidence limits, were determined by the method of Litchfield and Wilcoxon.
(§4) The results of these experiments are set out in Table I where R, R1 and R2 refer to the proceeding general formula for the compounds of the present invention. In the column under R2 CBM stands for cyclobutylmethyl, CPM for cyclopropylmethyl, THF for tetrahydrofurfuryl and DMA for dimethylallyl.

[1] = Overall agonist/antagonist classification from Table I (Tests A and B); format: in vivo, mice (Test A); rats (Test B); conditions: from ED50 and AD50 values of Table I
Procedure: (§5) The analgesic effects of test compounds were determined in mice by use of the acetic acid writhing test described by B. J. R. Whittle, Brit. J. Pharmacol., 22:296 (1964). In this test at least three groups of five male CD-1 mice each were given subcutaneous doses of the test drug dissolved in either distilled water or distilled water acidified with HCl depending on the solubility of the compound. In all cases, 0.4 milliliter of a 0.5% V/V acetic acid in distilled water solution was administered intraperitoneally 15 minutes post drug. The number of writhes in a 20 minute interval beginning 5 minutes after the acetic acid injection were determined and compared with the number of writes in control groups which had received only acetic acid.
(§6) The ED50 dose, i.e., the dose required to reduce the number of writhes by 50%, was determined graphically from a plot of % inhibition as a probit versus log dose. Confidence limits of 95% were calculated on the basis of those results falling in the range 16-84% inhibition. See Litchfield, J. T. and Wilcoxon, F., J. Pharmacol. Exp. Ther., 96, 99-113, (1949).
as §1, §2, §3

mice = experiment: Test A: acetic acid mouse writhing test (analgesic effects); format: in vivo, male CD-1 mice; conditions: for ED50: Mus musculus, sc
Procedure: (A) Analgesic effects upon mice (acetic acid writhing test).
as §5
Percent inhibition of writhing was calculated as: [formula]
as §6, §4

[2] = prior art report; cited from earlier work
[3] = sc, rats, tail flick, drug interperitoneally 10 min before ED80 morphine s.c., dose inhibiting morphine effect by 50%, read-out: AD50 (Test B, narcotic antagonist activity)
[4] = rats, tail flick, drug interperitoneally 10 min before ED80 morphine s.c., dose inhibiting morphine effect by 50%
[5] = subcutaneous, 15 min before acetic acid, dose reducing writhes by 50%, read-out: ED50 (Test A, acetic acid mouse writhing test)

SMILES | ED50 (rats; [3]) | agonist/antagonist profile [1] | ED50 (mice; [5]) | AD50 (Test B): inactive at dose stated (rats; rats, tail flick vs morphine) | also measured
CO[C@@]12[C@@H](C)CC(=O)C[C@@]13CCN(CC1CCC1)[C@@H]2Cc1ccc(O)cc13 [TR-5212, 17-Cyclobutylmethyl-3-hydroxy-14-methoxy-8β-methylmorphinan-6-one Hydrochloride] | 0.18 mg/kg | pure narcotic antagonists |  |  | ED50 (Test A): inactive at dose stated (mice; at 10 mg/kg, subcutaneous): IA (IA is intended to mean "inactive")
COc1ccc2c(c1)[C@]13CCN(CC4CC4)[C@H](C2)[C@]1(OC)CCC(=O)C3 [TR-5305, 17-Cyclopropylmethyl-3,14-dimethoxymorphinan-6-one] |  | mixed analgesic (agonist) and narcotic antagonist activity | 0.98 mg/kg |  | AD50 (Test B, narcotic antagonist activity) (rats; [4]): 1.60 mg/kg
COc1ccc2c(c1)[C@]13CCN(CC4CCCO4)[C@H](C2)[C@]1(OC)[C@H](C)CC(=O)C3.Cl (stereo partly drawn) [TR-5327, 17-Tetrahydrofurfuryl-3,14-dimethoxy-8α-methylmorphinan-6-one Hydrochloride] |  | pure analgesics | 1.85 mg/kg | IA | 
COc1ccc2c(c1)[C@]13CCN(CC4CCCO4)[C@H](C2)[C@]1(OC)CCC(=O)C3.Cl (stereo partly shown) [TR-5326, 3,14-Dimethoxy-17-tetrahydrofurfurylmorphinan-6-one Hydrochloride] |  | pure analgesics | 0.16 mg/kg | IA | 
CO[C@@]12CCC(=O)C[C@@]13CCN(CC1CCCO1)[C@@H]2Cc1ccc(O)cc13 (stereo partly shown) [TR-5340, 3-Hydroxy-14-methoxy-17-tetrahydrofurfurylmorphinan-6-one] |  | pure analgesics | 0.03 mg/kg | IA | 
CO[C@@]12[C@H](C)CC(O)C[C@@]13CCN(CC1CC1)[C@@H]2Cc1ccc(O)cc13.Cl (stereo partly drawn) [TR-5285, 17-Cyclopropylmethyl-14-methoxy-8α-methylmorphinan-3,6-diol Hydrochloride] | > 10 mg/kg | not active as an analgesic or a narcotic antagonist | > 10 mg/kg |  | 
CO[C@@]12CCC(=O)C[C@@]13CCN(CC1CCC1)[C@@H]2Cc1ccc(O)cc13 [TR-5306, 17-Cyclobutylmethyl-3-hydroxy-14-methoxymorphinan-6-one Hydrochloride] |  | pure analgesics | 0.007 mg/kg | IA | 
CO[C@@]12[C@H](C)CC(=O)C[C@@]13CCN(CC1CCC1)[C@@H]2Cc1ccc(O)cc13 [TR-5249, 17-Cyclobutylmethyl-3-hydroxy-14-methoxy-8α-methylmorphinan-6-one] | 3 mg/kg |  | 0.14 mg/kg |  | 
COc1ccc2c(c1)[C@]13CCN(CC4CCC4)[C@H](C2)[C@]1(OC)CCC(=O)C3 [TR-5296, 17-Cyclobutylmethyl-3,14-dimethoxymorphinan-6-one Hydrochloride] |  | pure analgesics | 0.77 mg/kg | 1A | 
COc1ccc2c(c1)[C@]13CCN(CC4CCC4)[C@H](C2)[C@]1(OC)[C@H](C)CC(=O)C3.Cl [TR-5219, 17-Cyclobutylmethyl-3,14-dimethoxy-8α-methylmorphinan-6-one Hydrochloride] |  |  | 15.1 mg/kg | IA | narcotic antagonist activity (in words) (rats; rats, tail flick vs morphine): not a narcotic antagonist; ED50 (mice; writhing, unit inferred, read-out: ED50 value): 15.1 mg/kg; analgesic activity (in words) (mice; writhing): only a weak analgesic
CO[C@@]12CCC(=O)C[C@@]13CCN(CC1CC1)[C@@H]2Cc1ccc(O)cc13.Cl [TR-5325, 17-Cyclopropylmethyl-3-hydroxy-14-methoxymorphinan-6-one Hydrochloride] | 0.35 mg/kg |  | 0.45 mg/kg |  | agonist/antagonist profile ([1]; Hydrochloride): mixed analgesic (agonist) and narcotic antagonist activity
COc1ccc2c(c1)[C@]13CCN(CC4CC4)[C@H](C2)[C@]1(OC)[C@@H](C)CC(=O)C3.Cl [TR-5209, 17-Cyclopropylmethyl-3,14-dimethoxy-8β-methylmorphinan-6-one Hydrochloride] | 0.45 mg/kg | pure narcotic antagonists |  |  | ED50 (Test A): inactive at dose stated (mice; at 13 mg/kg, subcutaneous): IA (IA is intended to mean "inactive")
COc1ccc2c(c1)[C@]13CCN(CC4CCC4)[C@H](C2)[C@]1(OC)[C@@H](C)CC(=O)C3.Cl [TR-5211, 17-Cyclobutylmethyl-3,14-dimethoxy-8β-methylmorphinan-6-one Hydrochloride] | 0.41 mg/kg | pure narcotic antagonists |  |  | ED50 (Test A): inactive at dose stated (mice; at 10 mg/kg, subcutaneous): IA (IA is intended to mean "inactive")
CO[C@@]12[C@@H](C)CC(=O)C[C@@]13CCN(CC1CC1)[C@@H]2Cc1ccc(O)cc13.Cl [TR-5210, 17-Cyclopropylmethyl-3-hydroxy-14-methoxy-8β-methylmorphinan-6-one Hydrochloride] | 0.004 mg/kg |  | 30 mg/kg |  | ED50 (rats; rats, tail flick vs morphine, unit inferred, read-out: AD50 (the source's name)): 0.004 mg/kg; potency as narcotic antagonist relative to naloxone (rats; naloxone as comparator): 10 times; agonist/antagonist profile ([1]; Hydrochloride): pure narcotic antagonist
CO[C@@]12[C@@H](C)CC(O)C[C@@]13CCN(CC1CC1)[C@@H]2Cc1ccc(O)cc13 (stereo partly drawn) [TR-5250, 17-Cyclopropylmethyl-14-methoxy-8β-methylmorphinan-3,6-diol Hydrochloride] | 0.32 mg/kg |  |  |  | less active as narcotic antagonist than TR-5210 (rats; rats, tail flick vs morphine, compared with TR-5210): ~2 orders of magnitude; ED50 (Test A): inactive at dose stated (mice; at 10 mg/kg, subcutaneous): IA (IA is intended to mean "inactive")
C[C@H]1[C@H]2Cc3ccc(O)cc3[C@]1(C)CCN2CC1CC1 [cyclazocine] |  |  |  |  | analgesic / narcotic antagonist activity (literature) [2]: mixed analgesic/narcotic antagonist activity
CO[C@@]12[C@H](C)CC(=O)C[C@@]13CCN(CC1CC1)[C@@H]2Cc1ccc(O)cc13.Cl [TR-5284, 17-Cyclopropylmethyl-3-hydroxy-14-methoxy 8α-methylmorphinan-6-one Hydrochloride] | < 3 mg/kg | pure narcotic antagonists |  |  | narcotic antagonist activity (in words) (rats; rats, tail flick vs morphine): is a narcotic antagonist; ED50 (Test A): inactive at dose stated (mice; at 10 mg/kg, subcutaneous): IA (IA is intended to mean "inactive")
COc1ccc2c(c1)[C@]13CCN(CC4CC4)[C@H](C2)[C@]1(OC)CCC(=O)C3 [TR-5400, 17-Cyclopropylmethyl-3,14-dimethoxymorphinan-6-one] |  |  |  |  | AD50 (Test B, narcotic antagonist activity) (rats; [4]): 0.64 mg/kg; ED50 (Test A, acetic acid mouse writhing test) (mice; subcutaneous, 15 min before acetic acid, dose reducing writhes by 50%): 0.89 mg/kg
CO[C@@]12[C@H](C)CC(=O)C[C@@]13CCN(CC=C(C)C)[C@@H]2Cc1ccc(O)cc13.Cl [TR-5310, 17-Dimethylallyl-3-hydroxy-14-methoxy-8α-methylmorphinan-6-one Hydrochloride] |  | pure analgesics | 0.18 mg/kg | IA | 
